Source: PMC4065102 (PLoS ONE, 2014)
“Also recorded” adds a separate entry of the source. Bridges are numbered along the chain shown (N, C = ends). Where no end group is shown, it is not given here.

B1: annexin V: Alexa488-conjugated annexin V, apoptosis probe that binds to phosphatidylserine (protein, UniProt P08758 2-320, looked up)
Annexin A5: AQVLRGTVTDFPGFDERADAETLRKAMKGLGTDEESILTLLTSRSNAQRQEISAAFKTLFGRDLLDDLKSELTGKFEKLIVALMKPSRLYDAYELKHALKGAGTNEKVLTEIIASRTPEELRAIKQVYEEEYGSSLEDDVVGDTSGYYQRMLVVLLQANRDPDAGIDEAQVEQDAQALFQAGELKWGTDEEKFITIFGTRSVSHLRKVFDKYMTISGFQIEETIDRETSGNLEQLLLAVVKSIRSIPAYLAETLYYAMKGAGTDDHTLIRVMVSRSEIDLFNIRKEFRKNFATSLYSMIKGDTSGDYKKALLLLCGEDD
modifications: Alexa488 conjugate

Columns and labels:
[1] = test system: SNU-16 stomach tumor xenografts; assay: Anti-tumor treatment of mice and tumor size/weight measurement; type: in vivo; settings: 3 weeks after treatment; cisplatin 5 mg/kg i.p. once per week x2, cetuximab 1.5 mg/kg i.p. twice per week x4; p<0.05, p<0.05, p<0.001 (linear ApoPep-1 group); p<0.05, p<0.01, p<0.001 (cyclic group)
Method: At 3 weeks after treatment (endpoint of experiments), tumor volumes were measured and tumors were isolated for the weight measurement.
SNU-16 stomach tumor-bearing mice that were analyzed for imaging signals after the first and second round of treatment were maintained for the measurement of tumor size. […] PBS, phosphate-buffered saline; CPT, cisplatin; CET, cetuximab; CPT+CET, cisplatin plus cetuximab.

[2] = test system: SNU-16 stomach tumor xenografts; assay: In vivo NIR fluorescence imaging of tumor apoptosis; design: species or system mice; settings: for fluorescence intensity at tumor site in cisplatin plus cetuximab group compared to cisplatin alone and cetuximab alone / fluorescence intensity at tumor site in treated groups compared to untreated control group: FPR675-labeled peptide 800 nmol/kg i.v., imaging at 90 min; for fluorescence intensity at tumor site in cisplatin plus cetuximab group compared to cisplatin alone and cetuximab alone: after first and second round, linear: p<0.05/p<0.05 vs cisplatin, p<0.01/not significant vs cetuximab, cyclic: p<0.01/p<0.01 vs cisplatin, p<0.001/p<0.01 vs cetuximab; for fluorescence intensity at tumor site in treated groups compared to untreated control group: groups treated with cisplatin, cetuximab, cisplatin plus cetuximab, after first or second round of treatment, n = 3; for background fluorescence signals in other organs, including the liver and lung: whole body NIR fluorescence images, 90 min after i.v. FPR675-labeled peptide
Method: Eight-week old female athymic (nu/nu) Balb/c mice were purchased from Orient laboratories (Seongnam, Korea) and were housed under specific-pathogen-free conditions with laboratory chow and water ad libitum. Stomach tumor xenografts were established by subcutaneously injecting 1 x 10^7 SNU-16 cells in 100 µl saline into the right flank. Tumors were allowed to reach 50–60 mm^3 of volume before randomization and initiation of treatment. […] Changes in tumor size were measured over three weeks. Diameters of tumor were measured with automatic caliper. Tumor volumes were calculated using the formula: volume = (length x width x height)/2, where length, width, and height means the longest dimension, shorter dimension parallel to the mouse body, and diameter of tumor perpendicular to the length and width, respectively. Tumor weights were measured after isolation of tumor mass.
In vivo NIR fluorescence imaging was performed after the first and second round of treatment. Each treatment group (n = 6) was divided into two subgroups (n = 3) for imaging with linear and cyclic form of ApoPep-1, respectively. Linear and cyclic form of FPR675–labeled ApoPep-1 (1.45 mg/kg and 1.54 mg/kg, respectively; equivalent to 800 nmol/kg for each peptide) was injected through the tail vein into mice. At 90 min after administration, mice were anesthetized and subjected to imaging. NIR fluorescence (typically, between 650 and 1100 nm) is favored for in vivo optical imaging because of its low tissue absorption and deep tissue penetration properties. The excitation/emission wavelength of the FPR675 dye used in this study was 675/698 nm. Images were taken using the eXplore Optix optical imaging system (ART Inc., Montreal, Canada). […] The acquisition time for a whole-body scanning was 15 min per mouse. Fluorescence intensity at region of interest (ROI) was measured using a analysis software provided by the manufacturer (ART Inc.).
Figure 2 Monitoring of tumor response by in vivo imaging of apoptosis. […] After the first and second round of treatment, linear or cyclic form of FPR675 NIR fluorescence dye-labeled ApoPep-1 was intravenously injected into mice. In vivo NIR fluorescence images were taken at 90 min after administration. (A) (B) Quantification of NIR fluorescence signal intensity of the region of interest (ROI) in groups injected with linear and cyclic ApoPep-1. Bars represent the signal intensity at ROI obtained from three individual mice (mean ± S.D.). Asterisks represent statistical significance compared to PBS. Asterisks on brackets represent significance in difference between the two groups. * p<0.05, ** p<0.01, and *** p<0.001 by one-way ANOVA (n = 3 per group). (C) (D) Representative NIR fluorescence images by the uptake of linear and cyclic ApoPep-1 to tumor were shown. Scale bars represent normalized fluorescence intensity. Circles represent the ROI.

[3] = Stability of peptides in the serum; type: in vitro ADME, mice; settings: mouse serum, 100 µg peptide in 50 µl PBS + 50 µl filtered serum, 37°C, up to 24 h, C18 reverse phase FPLC, absorbance 215 nm, peak identity by MALDI-TOF MS
Method: Peptide stability in the serum was examined as previously described. Blood from mice was collected and allowed to clot, and then serum was obtained by centrifugation at 4°C twice followed by filtration (0.22 µm pore). Peptide (100 µg in 50 µl of PBS) was incubated with 50 µl of filtered serum at 37°C for the indicated time period. The incubated samples were diluted 100-fold and fractionated by C18 reverse phase FPLC with linear gradient of acetonitrile (Vydac protein and peptide C18, 0.1% trifluoroacetate in water for equilibration, and 0.1% trifluoroacetate in acetonitrile for elution). To confirm the identity of the peak from the profiles of C18 reverse phase FPLC, each peak was collected, vacuum dried, and analyzed by mass spectrometry (MS) using an MALDI-TOF mass spectrometer (Life Technologies, Carlsbad, CA).
Figure 5 Stability of linear and cyclic ApoPep-1 in the serum. Linear and cyclic ApoPep-1 peptides were incubated with mouse serum at 37°C for the indicated time periods. (A) (B) Linear and cyclic form of ApoPpep-1 samples and mouse serum were fractionated by C18 reverse-phase FPLC. Y axis represents the absorbance unit at 215 nm. Each peptide peak was indicated by an arrow and separable from serum peaks. (C) (D) MS spectrum of the linear and cyclic peptide peak collected from 24 h FPLC fraction and synthetic linear and cyclic ApoPep-1.

[4] = test system: SNU16 human stomach cancer cell line; assay: In vitro binding of peptides to apoptotic cells (flow cytometry); type: cell-based; settings: 10 µM FITC-conjugated peptide 4°C 1 h, or Alexa488-annexin V 15 min RT
Method: SNU16 human stomach cancer cell line was purchased from KCLB (Seoul, Korea). […] After treatment, cells were incubated with 10 µM of fluorescein isothiocyanate (FITC)-conjugated linear or cyclic form of ApoPep-1 at 4°C for 1 h. As control, cells were stained with Alexa488-conjugated annexin V (Life technologies, Carlsbad, CA) for 15 min at RT. Percentages of fluorescent (peptide-bound or annexin V-bound) cells were measured by flow cytometry.
Figure 1 In vitro detection of apoptosis. […] Cells were harvested and incubated with FITC-labeled ApoPep-1 at 4°C for 1 h or with annexin V at room temperature for 15 min. Data represent percentages of apoptotic cells as measured by flow cytometry. (A-C) Percentages of apoptotic cells detected by linear form of ApoPep-1, cyclic form of ApoPep-1, and annexin V, respectively. PBS, phosphate-buffered saline; CPT, cisplatin; CET, cetuximab; CPT+CET, cisplatin plus cetuximab.

Molecule	fluorescence intensity at tumor site in cisplatin plus cetuximab group compared to cisplatin alone and cetuximab alone [2]	fluorescence intensity at tumor site in treated groups compared to untreated control group [2]	background fluorescence signals in other organs, including the liver and lung [2]	also measured
N.N.[Cl][Pt][Cl] [cisplatin]	–	–	–	tumor volumes compared to untreated control [1]: reduced tumor volumes
CQRPPR [linear ApoPep-1, Linear (CQRPPR) form of ApoPep-1, histone H1-targeting peptide; used FITC-conjugated or FPR675-labeled]	higher	significantly higher	Little background fluorescence signals	amount of peptide remaining in the serum, as calculated by peak area ([3]; listed as linear form of ApoPep-1): not significantly changed up to 24 h; also recorded: stable in the presence of serum until 24 h
CQRPPRC (disulfide 1-7 (inferred)) [cyclic ApoPep-1, cyclic (CQRPPRC, disulfide bonding at amino and carboxy termini) form of ApoPep-1; used FITC-conjugated or FPR675-labeled]	remarkably higher	significantly higher	Little background fluorescence signals	amount of peptide remaining in the serum, as calculated by peak area ([3]; listed as cyclic form of ApoPep-1): not significantly changed up to 24 h; also recorded: stable in the presence of serum until 24 h
B1	–	–	–	percentages of apoptotic cells detected by the probe after treatment with cetuximab ([4]; cetuximab 200 µg/ml 24 h): ~40%; percentages of apoptotic cells detected by the probe after treatment with cisplatin ([4]; cisplatin 300 ng/ml 24 h): approximately 43%; percentages of apoptotic cells detected by the probe after treatment with cisplatin plus cetuximab ([4]; cisplatin 300 ng/ml plus cetuximab 200 µg/ml 24 h): ~45%
